Results from the supplement of paper PMC10331698.
± gives the standard deviation of the averaged measurements.

Assays:
Experiment in all cases: level (log10 ratio to DMSO vehicle control); higher = higher biomarker level / cell amount than vehicle control
[1] = compound: C=CC(=O)OCCC(F)(F)C(F)(F)C(F)(F)C(F)(F)C(F)(F)C(F)(F)C(F)(F)C(F)(F)F [8:2 Fluorotelomer acrylate]; conditions: in DMSO
Description: (§1)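 BioMAP Diversity Plus panel of 12 human primary cell co-culture systems (3C, 4H, LPS, SAg, BT, BF4T, BE3C, CASM3C, HDF3CGF, KF3CT, MyoF, Mphg). Compounds were added 1 h before stimulation and left for 24 h (MyoF 48 h; BT 72 h for soluble read-outs or 6 d for IgG). Biomarkers were read by ELISA, cytotoxicity by SRB, PBMC viability and proliferation by Alamar Blue. Each well value was divided by the mean of 8 DMSO control wells on the same plate and log10 transformed; duplicate blinded samples were tested at 4 concentrations.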

[2] = compound: C=CC(=O)OCC(F)(F)C(F)(F)C(F)(F)C(F)(F)C(F)(F)C(F)(F)C(F)(F)C(F)F [1H,1H,9H-Perfluorononyl acrylate]; conditions: in DMSO
Description: as §1

[3] = compound: OCCC(F)(F)C(F)(F)C(F)(F)C(F)(F)C(F)(F)C(F)(F)C(F)(F)C(F)(F)F [8:2 Fluorotelomer alcohol]; conditions: 6700 nM; in DMSO
Description: as §1

[4] = compound: FC(F)(F)C(F)(F)C(F)(F)C(F)(F)CCI [1H,1H,2H,2H-Perfluorohexyl iodide]; conditions: in DMSO
Description: as §1

[5] = compound: O=C(O)C(F)(F)C(F)(F)C(F)(F)C(F)(F)C(F)(F)C(F)(F)C(F)(F)F [Ammonium perfluorooctanoate]; conditions: in DMSO
Description: as §1

[6] = compound: C=C(C)C(=O)OCC(F)(F)C(F)(F)C(F)(F)F [2,2,3,3,4,4,4-Heptafluorobutyl methacrylate]; conditions: in DMSO
Description: as §1

[7] = compound: OCCCC(F)(F)C(F)(F)C(F)(F)C(F)(F)C(F)(F)C(F)(F)C(F)(F)C(F)(F)F [3-(Perfluorooctyl)propanol]; conditions: 6700 nM; in DMSO
Description: as §1

[8] = compound: C=CC(=O)OCC(F)(F)C(F)(F)C(F)(F)C(F)(F)COC(=O)C=C [1H,1H,6H,6H-Perfluorohexane-1,6-diol diacrylate]; conditions: 6700 nM; in DMSO
Description: as §1

| Test System | level (log10) ([1]; 6700 nM) | level (log10) ([1]; 20000 nM) | level (log10) ([1]; 60000 nM) | level (log10) ([2]; 6700 nM) | level (log10) ([2]; 20000 nM) | level (log10) ([2]; 60000 nM) | level (log10) [3] | level (log10) ([4]; 6700 nM) | level (log10) ([4]; 20000 nM) | level (log10) ([4]; 60000 nM) | level (log10) ([5]; 6700 nM) | level (log10) ([5]; 20000 nM) | level (log10) ([5]; 60000 nM) | level (log10) ([6]; 6700 nM) | level (log10) ([6]; 20000 nM) | level (log10) ([6]; 60000 nM) | level (log10) [7] | level (log10) [8] |
| --- | --- | --- | --- | --- | --- | --- | --- | --- | --- | --- | --- | --- | --- | --- | --- | --- | --- | --- |
| HDF3CGF:TIMP-1 | -0.03 ± 0.02 | -0.0265 ± 0.022 | -0.011 ± 0.061 | 0.001 ± 0.042 | -0.0005 ± 0.04 | -0.0165 ± 0.047 | -0.013 ± 0.0042 | 0.012 ± 0.037 | -0.0115 ± 0.05 | -0.065 ± 0.083 | 0.013 ± 0.0028 | 0.0065 ± 0.016 | 0.008 ± 0.02 | -0.0075 ± 0.0078 | -0.007 ± 0.024 | -0.019 ± 0.03 | -0.105 ± 0.052 | -0.203 ± 0.0021 |
| HDF3CGF:CD106/VCAM-1 | 0.0005 ± 0.022 | 0.011 ± 0.0071 | 0.007 ± 0.0085 | -0.0565 ± 0.079 | -0.29 ± 0.029 | -0.453 ± 0.14 | -0.0265 ± 0.015 | -0.043 ± 0.082 | -0.0425 ± 0.026 | -0.168 ± 0.022 | -0.0315 ± 0.011 | -0.0065 ± 0.023 | -0.037 ± 0.0071 | -0.023 ± 0.0042 | -0.017 ± 0.03 | -0.07 ± 0.028 | -0.244 ± 0.013 | -0.676 ± 0.061 |
| MyoF:alpha-SM Actin | 0.0185 ± 0.069 | 0.0145 ± 0.063 | 0.009 ± 0.059 | -0.041 ± 0.0014 | -0.075 ± 0.011 | -0.182 ± 0.028 | -0.021 ± 0.024 | 0.03 ± 0.064 | 0.0325 ± 0.064 | 0.043 ± 0.034 | -0.0145 ± 0.0078 | -0.016 ± 0.0071 | -0.0295 ± 0.04 | -0.0195 ± 0.0078 | -0.0025 ± 0.0035 | -0.002 ± 0.011 | -0.0885 ± 0.061 | -0.157 ± 0.012 |
| CASM3C:CD142/Tissue Factor | -0.036 ± 0.021 | -0.047 ± 0.05 | -0.0145 ± 0.032 | 0.0345 ± 0.026 | -0.003 ± 0.061 | -0.016 ± 0.0014 | -0.011 ± 0.014 | -0.019 ± 0.034 | -0.0065 ± 0.0078 | 0.0235 ± 0.035 | 0.005 ± 0.028 | -0.009 ± 0.025 | -0.01 ± 0.024 | -0.006 ± 0.021 | 0 ± 0.038 | 0.0045 ± 0.022 | -0.007 ± 0.054 | -0.004 ± 0.059 |
| CASM3C:CXCL9/MIG | 0.026 ± 0.0071 | -0.0055 ± 0.066 | 0.011 ± 0.065 | -0.014 ± 0.0042 | -0.0045 ± 0.028 | -0.0035 ± 0.03 | 0.0025 ± 0.026 | 0.016 ± 0.028 | 0.022 ± 0.03 | 0.0575 ± 0.09 | -0.001 ± 0.016 | 0.017 ± 0.017 | 0.0225 ± 0.028 | -0.001 ± 0.011 | 0.005 ± 0.0099 | 0.0195 ± 0.0021 | -0.042 ± 0.0028 | -0.154 ± 0.031 |
| lMphg:CD62E/E-Selectin | 0.019 ± 0.038 | 0.0215 ± 0.0064 | 0.041 ± 0.034 | 0 ± 0.0099 | -0.004 ± 0.02 | -0.01 ± 0.017 | 0.024 ± 0.023 | -0.021 ± 0.0071 | -0.0105 ± 0.026 | 0.0315 ± 0.0064 | -0.0205 ± 0.0021 | -0.003 ± 0.058 | 0.0025 ± 0.022 | -0.0085 ± 0.015 | -0.0005 ± 0.013 | -0.031 ± 0.0028 | -0.0425 ± 0.066 | -0.044 ± 0.021 |
| CASM3C:CD87/uPAR | -0.035 ± 0.021 | -0.027 ± 0.011 | -0.004 ± 0.0014 | 0.0315 ± 0.005 | 0.017 ± 0.042 | 0.005 ± 0.0057 | -0.018 ± 0.054 | -0.0015 ± 0.018 | -0.024 ± 0.051 | -0.0345 ± 0.033 | 0.003 ± 0.03 | 0.008 ± 0.0028 | 0.0045 ± 0.023 | -0.018 ± 0.0099 | -0.0235 ± 0.029 | -0.018 ± 0.0028 | -0.021 ± 0.0085 | -0.0235 ± 0.013 |
| KF3CT:CXCL9/MIG | -0.0065 ± 0.0092 | 0.0005 ± 0.0035 | 0.011 ± 0.0085 | -0.0145 ± 0.0035 | -0.007 ± 0.017 | -0.019 ± 0.0057 | 0.0045 ± 0.0078 | 0.004 ± 0.0099 | 0.0095 ± 0.011 | 0.0135 ± 0.033 | 0.005 ± 0.0014 | 0.0095 ± 0.0035 | 0.0115 ± 0.016 | 0.009 | 0 ± 0.0042 | 0.0005 ± 0.011 | -0.018 ± 0.0057 | -0.034 ± 0.0071 |
| CASM3C:HLA-DR | -0.0145 ± 0.0078 | -0.0045 ± 0.0021 | 0.022 ± 0.013 | -0.0945 ± 0.044 | -0.04 ± 0.071 | 0.021 ± 0.033 | -0.022 ± 0.018 | -0.012 ± 0.0085 | -0.017 ± 0.02 | 0.0265 ± 0.081 | 0.0085 ± 0.012 | -0.0055 ± 0.0021 | 0.0015 ± 0.023 | -0.0035 ± 0.0078 | 0.0125 ± 0.0021 | 0.0135 ± 0.015 | -0.0215 ± 0.005 | -0.008 ± 0.12 |
| CASM3C:SRB | -0.002 | 0.005 ± 0.0099 | 0.0085 ± 0.0064 | 0.0075 ± 0.015 | 0.005 ± 0.0014 | -0.001 ± 0.014 | -0.014 ± 0.0057 | 0 ± 0.014 | -0.0005 ± 0.0092 | -0.005 ± 0.033 | -0.0015 ± 0.00071 | -0.001 ± 0.0099 | -0.0005 ± 0.00071 | 0.0045 ± 0.0021 | -0.0005 ± 0.0092 | -0.004 ± 0.0057 | -0.008 ± 0.0042 | 0 ± 0.0014 |
| KF3CT:uPA | 0.003 ± 0.013 | -0.0165 ± 0.037 | -0.004 ± 0.0014 | -0.0285 ± 0.012 | -0.005 ± 0.025 | -0.0395 ± 0.013 | 0.0155 ± 0.0078 | -0.001 ± 0.02 | 0.0045 ± 0.013 | -0.005 ± 0.0099 | 0.0125 ± 0.012 | 0.006 ± 0.017 | 0.001 ± 0.013 | -0.0035 ± 0.011 | -0.008 ± 0.021 | -0.003 ± 0.0042 | -0.0045 ± 0.025 | -0.057 ± 0.0057 |
| MyoF:CXCL8/IL-8 | -0.003 ± 0.02 | 0.008 ± 0.018 | 0.029 ± 0.0057 | -0.024 ± 0.031 | -0.006 ± 0.03 | 0.0205 ± 0.013 | 0.023 ± 0.0014 | 0.065 ± 0.1 | 0.078 ± 0.1 | 0.142 ± 0.12 | 0.019 ± 0.011 | 0.004 ± 0.017 | 0.036 ± 0.065 | -0.0125 ± 0.033 | -0.017 ± 0.024 | -0.014 ± 0.041 | -0.0505 ± 0.033 | -0.049 ± 0.035 |
| CASM3C:CD106/VCAM-1 | -0.033 ± 0.0042 | -0.039 ± 0.037 | 0.004 ± 0.025 | -0.0885 ± 0.028 | -0.0715 ± 0.07 | -0.12 ± 0.067 | -0.0825 ± 0.015 | -0.023 ± 0.016 | -0.057 ± 0.0057 | -0.031 ± 0.075 | 0.0115 ± 0.015 | -0.0085 ± 0.013 | -0.021 ± 0.025 | 0.0205 ± 0.013 | -0.006 ± 0.04 | 0.001 ± 0.02 | -0.0895 ± 0.019 | -0.128 ± 0.02 |
| HDF3CGF:CXCL8/IL-8 | -0.01 ± 0.0085 | -0.0105 ± 0.0035 | -0.0095 ± 0.026 | -0.009 ± 0.0042 | 0.0075 ± 0.021 | 0.0085 ± 0.0035 | 0.005 ± 0.0099 | 0.003 ± 0.0057 | -0.0025 ± 0.0035 | 0.0015 ± 0.011 | -0.0025 ± 0.005 | 0.002 ± 0.0042 | 0.003 | 0.0005 ± 0.0021 | -0.0045 ± 0.0092 | 0.006 ± 0.0028 | -0.0145 ± 0.0092 | -0.021 ± 0.0057 |
| 3C:CD54/ICAM-1 | -0.009 ± 0.02 | -0.0205 ± 0.018 | 0.002 ± 0.0085 | -0.009 ± 0.0057 | -0.0085 ± 0.012 | -0.0105 ± 0.015 | -0.014 ± 0.0014 | -0.01 ± 0.041 | -0.027 ± 0.025 | -0.009 ± 0.054 | 0.004 ± 0.014 | 0.0065 ± 0.0064 | 0.0065 ± 0.00071 | 0.002 ± 0.0028 | 0.007 ± 0.0042 | 0.0135 ± 0.005 | 0.0095 ± 0.0064 | -0.028 ± 0.0085 |
| MyoF:Decorin | -0.0175 ± 0.0078 | -0.0185 ± 0.0078 | -0.016 ± 0.017 | -0.014 ± 0.024 | -0.0655 ± 0.0021 | -0.065 ± 0.052 | -0.0195 ± 0.019 | 0.0085 ± 0.012 | 0.011 ± 0.025 | 0.024 ± 0.075 | 0.0055 ± 0.0035 | 0.0075 ± 0.00071 | -0.0355 ± 0.057 | 0.018 ± 0.014 | 0.0075 ± 0.005 | 0.022 ± 0.0014 | 0.0395 ± 0.033 | -0.083 ± 0.011 |
